Assay [1] concerns the target T1, GlyR α1^I132A (Homo sapiens, UniProt P23415, I160A).
T1 sequence (P23415 29-457 I160A): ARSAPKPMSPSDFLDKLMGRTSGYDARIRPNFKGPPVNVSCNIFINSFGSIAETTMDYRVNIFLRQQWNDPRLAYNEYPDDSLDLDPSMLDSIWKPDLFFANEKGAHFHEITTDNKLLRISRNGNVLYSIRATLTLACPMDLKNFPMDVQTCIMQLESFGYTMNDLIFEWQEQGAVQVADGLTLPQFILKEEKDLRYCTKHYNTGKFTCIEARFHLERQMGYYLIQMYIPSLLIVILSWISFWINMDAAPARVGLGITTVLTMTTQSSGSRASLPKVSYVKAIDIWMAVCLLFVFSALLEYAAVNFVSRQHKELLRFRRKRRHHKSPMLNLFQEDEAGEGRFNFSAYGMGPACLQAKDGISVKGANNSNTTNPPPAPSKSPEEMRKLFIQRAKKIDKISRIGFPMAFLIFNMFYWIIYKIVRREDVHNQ
Briefly: Whole-cell recording of substituted GlyR in HEK cells. The class given is cell-based.

Assay [2] has as its target GlyR α1^D114G (Homo sapiens, UniProt P23415, D142G). The assay is described as above. The class given is cell-based. The settings on record: α1^D114G vs WT.
Assay [3] concerns the target T2, GlyR α1^F108A (Homo sapiens, UniProt P23415, F136A).
T2 sequence (P23415 29-457 F136A): T1 sequence (P23415 29-457 I160A) with F108A, A132I
The class given is cell-based. To be noted: α1^F108A.

Assay [4] concerns the target GlyR α1^T113G (Homo sapiens, UniProt P23415, T141G). The assay can be described thus: Whole-cell recording of substituted GlyR in HEK cells. The class given is cell-based. The settings on record: α1^T113G vs WT.
Assay [5] has as its target T3, GlyR α1^L134A (Homo sapiens, UniProt P23415, L162A).
T3 sequence (P23415 29-457 L162A): T1 sequence (P23415 29-457 I160A) with A132I, L134A
The description is as above. To be noted: α1^L134A. The class given is cell-based.

In assay [6] the target is GlyR α1^L134A, D86A (Homo sapiens, UniProt P23415, D114A/L162A). The assay is described as above. The class given is cell-based.
Assay [7] concerns the target GlyR α1^F100Y (Homo sapiens, UniProt P23415, F128Y). The assay is described as above. The class given is cell-based. The settings on record: same cell.
Assay [8] deals with GlyR α1^L134A, D84A (Homo sapiens, UniProt P23415, D112A/L162A). The assay is described as above. The class given is cell-based.
For assay [9], the target named is GlyR α1^L134A, D97A (Homo sapiens, UniProt P23415, D125A/L162A). Described as above. The class given is cell-based.
Assay [10] deals with GlyR α1^T112A (Homo sapiens, UniProt P23415, T140A). The class given is cell-based.
The target in assay [11] is GlyR α1 F108Y (Homo sapiens, UniProt P23415, F136Y). The assay can be described thus: Whole-cell recording of substituted GlyR in HEK cells. The class given is cell-based. The settings on record: same cell.
Assay [12] concerns Zn^2+-activated GlyRs (ZAGs). The class given is cell-based, human. To be noted: substituted GlyRs, n = 5; close to ECl.
Where [13] appears, read: maximal Zn^2+ response as percentage of maximal glycine response in same cell.
Setting [14] is: read-out: Zn^2+ Activation EC50, direct activation without glycine.
Where [15] appears, read: read-out: Zn^2+ Inhibition IC50, modulation of EC50 glycine currents.

Where a chain is given by its changes, count along the chain named.

A word on the EC50: it is the midpoint of the concentration-response curve. A word on the IC50: it is the concentration needed to halve the response being measured.

Chain of GlyR α1^L134A, D84A (P23415 29-457 D112A/L162A): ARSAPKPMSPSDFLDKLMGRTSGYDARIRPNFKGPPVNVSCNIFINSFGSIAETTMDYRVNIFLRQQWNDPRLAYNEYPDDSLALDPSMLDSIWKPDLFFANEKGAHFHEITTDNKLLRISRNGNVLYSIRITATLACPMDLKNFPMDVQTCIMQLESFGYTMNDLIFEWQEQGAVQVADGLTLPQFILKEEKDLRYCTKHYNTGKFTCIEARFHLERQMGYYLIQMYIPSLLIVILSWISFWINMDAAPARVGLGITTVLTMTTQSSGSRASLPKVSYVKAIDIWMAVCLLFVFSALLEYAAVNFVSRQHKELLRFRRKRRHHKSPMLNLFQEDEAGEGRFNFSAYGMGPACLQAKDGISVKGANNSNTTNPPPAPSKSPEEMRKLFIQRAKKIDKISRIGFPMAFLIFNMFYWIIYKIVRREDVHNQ
Chain of GlyR α1^L134A, D86A (P23415 29-457 D114A/L162A): as the sequence (P23415 29-457 D112A/L162A) above, with A84D, D86A counted along it
Chain of GlyR α1^T113G (P23415 29-457 T141G): as the sequence (P23415 29-457 D112A/L162A) above, with A84D, T113G, A134L counted along it
Chain of GlyR α1^L134A, D97A (P23415 29-457 D125A/L162A): as the sequence (P23415 29-457 D112A/L162A) above, with A84D, D97A counted along it
Chain of GlyR α1 F108Y (P23415 29-457 F136Y): as the sequence (P23415 29-457 D112A/L162A) above, with A84D, F108Y, A134L counted along it
Chain of GlyR α1^F100Y (P23415 29-457 F128Y): as the sequence (P23415 29-457 D112A/L162A) above, with A84D, F100Y, A134L counted along it
Chain of GlyR α1^D114G (P23415 29-457 D142G): as the sequence (P23415 29-457 D112A/L162A) above, with A84D, D114G, A134L counted along it
Chain of GlyR α1^T112A (P23415 29-457 T140A): as the sequence (P23415 29-457 D112A/L162A) above, with A84D, T112A, A134L counted along it

In the case of `NCC(=O)O` [Glycine, glycine], the “Glycine Imax” value in assay [1] is 6.1 ± 0.7 nA; in assay [3], 4.5 ± 0.5 nA; in [5] it was 6.0 ± 0.3 nA. Moreover, the figures for the “Glycine nH” value in assay [1] (Hill slope), in assay [3] (Hill slope) and in assay [5] (Hill slope) were 2.7 ± 0.4, 2.3 ± 0.1 and 3.0 ± 0.4, respectively. In addition, the “Increase in glycine sensitivity compared to WT” value in assay [2] and in assay [4] was 3 fold in each case.

`[Zn+2]` [Zn^2+]: the figures for the “Zn^2+ Activation nH” value in assay [1] (Hill slope), in assay [3] (Hill slope) and in [5] (Hill slope) were 1.2 ± 0.1, 0.7 ± 0.1 and 1.3 ± 0.1, respectively. The “Zn^2+ Activation Relative efficacy (% Gly Imax)” value in [1] (setting [13]) is listed as 72 ± 5 % Gly Imax; in assay [3] (setting [13]) it was 25 ± 6 % Gly Imax; in [5] (setting [13]), 38 ± 9 % Gly Imax. Also, the EC50 in [1] (setting [14]) is 140 ± 30 µM; in assay [3] (setting [14]), 2300 ± 600 nM; in [5] (setting [14]), 60 ± 10 nM. Moreover, the IC50 in assay [1] (setting [15]), in assay [3] (setting [15]) and in assay [5] (setting [15]) was over 1 mM in each case. In addition, the “Zn^2+ activation (normalised to Gly Imax)” value in assay [6] (D86A) was found to be 2.4 ± 1.2%; in [8] (D84A), 5 ± 1%. The figures for the “Increase of Zn^2+ activation EC50 relative to α1^L134A” value in [6] (D86A vs α1^L134A) and in assay [8] (D84A vs α1^L134A) were 15 fold and 120 fold, respectively. The “Maximal Zn^2+ (1 mM)-activated current normalised to glycine Imax (10 mM)” value in assay [7] and in [11] was under 2 % Gly Imax throughout. For the same compound, the “Zn^2+ activation” value in assay [9] is “no detectable activation”; in assay [10] it was “highly-sensitive and efficacious ZAG”. Also, the “Reversal potential of Zn^2+-activated currents” value in assay [12] was 0.4 ± 1.4 mV.

(Values after paper PMC6685790 (Nature structural & molecular biology, 2008).)
